Assay results from patent US5594024A, “Centrally actig substituted phenylazacycloalkanes” (priority 1995, dated 1997).

Tests used:
[1] = in vivo; set-up: species or system rat (male Sprague-Dawley); details: rat
Protocol: This is in contrast to the actions of the preferential dopamine autoreceptor antagonists (+)-AJ76 and (+)-UH232 5. The blood levels of (±)-34 were measured after oral (40 μmol/kg) and iv (5 μmol/kg) administration of the drug to male Sprague-Dawley rats (250-300 g) that were cannulated with catheters in the jugular vein and the arteria carotis. The levels of (±)-34 were measured in whole blood by means of GC-MS. […] The oral availability is considerably better than the values obtained for (+)-UH232 and (+)-AJ76 (approximately 6 and 3%, respectively).

[2] = system: central dopamine receptors; details: Hacksell et al., J. Med. Chem., 24, 1475 (1981); cited from earlier work
[3] = system: d-amphetamine-induced hyperactivity; test: d-Amphetamine-induced hyperactivity in habituated rats; type: in vivo, rat; details: test compound 14 mg/kg, sc; d-amphetamine 5 mg/kg
[4] = system: DA receptor; details: after NSD1015; Johansson et al.; cited from earlier work
[5] = system: non-pretreated rats; details: Johansson et al.; cited from earlier work
[6] = system: DA receptor; details: no NSD1015 treatment; Johansson et al.; cited from earlier work
[7] = comparison values, source not given; cited from earlier work
[8] = system: D3; details: Sokoloff, et al., Nature, 347 146-51 (1990); series of classical and atypical neuroleptics; cited from earlier work

SMILES | half-life ([1]; iv) [h] | bioavailability ([1]; po, oral bioavailability) [%] | direct receptor agonistic effects in reserpinized rats [2] | effect on activation induced by high dose d-amphetamine [3] | Dopa accumulation in normal animals [4] | locomotor activity (photocell motility meters) [5] | levels of the DA metabolites DOPAC and HVA [6] | oral availability [7] | preference for the D3 site [8]
CCCN1CCCC(c2cccc(C#N)c2)C1 (racemic) [(±)-34, 3-(3-cyanophenyl-N-n-propyl)piperidine] | ~3 | ~78 | no direct receptor agonistic effects | – | – | – | – | – | –
CCCN[C@@H]1CCc2c(OC)cccc2[C@@H]1C [(+)-AJ76, (+)-cis-1S,2R-5-methoxy-1-methyl-2-(N-n-propylamino)tetralin] | – | – | – | clearly blocked the stimulation | raise the Dopa accumulation | increase the locomotor activity | raise the levels of the DA metabolites DOPAC and HVA | approximately 3% | highest preference for the D3 site
CCCN(CCC)[C@@H]1CCc2c(OC)cccc2[C@@H]1C [(+)-UH232, (+)-cis-1S,2R-5-methoxy-1-methyl-2-(N,N-di-n-propylamino)tetralin] | – | – | – | – | raise the Dopa accumulation | increase the locomotor activity | raise the levels of the DA metabolites DOPAC and HVA | approximately 6% | highest preference for the D3 site
